Patent US20130296311A1, “INHIBITORS OF HCV NS5A” (PRESIDIO PHARMACEUTICALS, INC., priority 2010, published 2013)

Test system: HCV 1b_Huh-Luc/Neo-ET cell line persistently expressing a bicistronic genotype 1b replicon in Huh 7 cells
Experiment: HCV replicon assay (luciferase readout, 72 h)
Assay type: cell-based, HCV genotype 1b
Settings: Hepatitis C virus, Huh-7, 72 h, read-out: Inhibition of HCV genotype 1b
Outline: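 Huh 7 cells carrying a bicistronic genotype 1b luciferase/neo replicon received compound in triplicate the day after plating. After 72 h, replicon levels were read as Bright-Glo luciferase activity, expressed as % of control; EC50 was fitted with a four-parameter logistic and determined several times.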

Row | Structure (SMILES) | EC50 [nM]
1 | O=S(=O)(Cc1ccccc1)N1CCC[C@H]1c1ncc(-c2ccc(C#Cc3ccc4nc([C@@H]5CCCN5S(=O)(=O)Cc5ccccc5)[nH]c4c3)cc2)[nH]1 [Compound 1042] | > 1000
2 | COC(=O)N[C@H](C(=O)N1CCC[C@H]1c1ncc(-c2ccc(C#Cc3ccc4nc([C@@H]5CCCN5C(=O)[C@@H](NC(=O)OC)C(C)C)[nH]c4c3)nc2)[nH]1)C(C)C [Compound 1033] | < 1
3 | COC(=O)N[C@H](C(=O)N[C@@H](C)c1ncc(-c2ccc(C#Cc3ccc(-c4cnc([C@@H]5CCCN5C(=O)[C@@H](C(C)C)N(C)C)[nH]4)cc3)cc2)[nH]1)C(C)C [Compound 964] | 1 to 9.9
4 | COC(=O)N[C@H](C(=O)N1CCC[C@H]1c1ncc(-c2ccc(C#Cc3ccc(-c4cnc([C@@H]5CCCN5C(=O)[C@@H](NC(=O)OC)[C@@H](C)O)[nH]4)cc3)cc2)[nH]1)[C@@H](C)O [Compound 283] | < 1
5 | CC(C)[C@H](NC(=O)C1CC1)C(=O)N1CCC[C@H]1c1ncc(-c2ccc(C#Cc3ccc(-c4cnc([C@@H]5CCCN5C(=O)[C@@H](NC(=O)C5CC5)C(C)C)[nH]4)cc3)cc2)[nH]1 [Compound 170] | 1 to 9.9
6 | COC(=O)N[C@@H](C(=O)N1CCC[C@H]1C(=O)Nc1ccc(C#Cc2ccc(-c3cnc([C@@H]4CCCN4C(=O)[C@H](NC(=O)OC)c4ccccc4)[nH]3)cc2)cc1)c1ccccc1 [Compound 171] | < 1
7 | COC(=O)N[C@H](C(=O)N1CC[C@H](O)[C@H]1c1ncc(-c2ccc(C#Cc3ccc4nc([C@@H]5CCCN5C(=O)[C@@H](NC(=O)OC)C(C)C)[nH]c4c3)cc2)[nH]1)C(C)C [Compound 1068] | < 1
8 | COC(=O)N[C@H](C(=O)N1CCC[C@H]1c1ncc(-c2ccc(C#Cc3ccc(-c4cnc([C@@H]5CCCN5C(=O)[C@H](C(C)C)N5CCOC5=O)[nH]4)cc3)cc2)[nH]1)C(C)C [Compound 996] | < 1
9 | COC(=O)N[C@H](C(=O)N[C@@H](C)c1ncc(-c2ccc(C#Cc3ccc(-c4cnc([C@@H]5CCCN5C(=O)[C@@H](NC(=O)OC)C(C)C)[nH]4)cc3)cc2)[nH]1)C(C)C [Compound 275] | < 1
10 | COC(=O)N[C@H](C(=O)N1CCC[C@H]1c1nc(-c2ccc3cc(C#Cc4[nH]c([C@@H]5CCCN5C(=O)[C@@H](NC(=O)OC)C(C)C)nc4C)ccc3c2)c[nH]1)C(C)C [Compound 1081] | < 1
11 | COC(=O)N[C@@H](C)C(=O)N1CCC[C@H]1c1ncc(-c2ccc(C#Cc3ccc(-c4cnc([C@@H]5CCCN5C(=O)[C@@H](c5ccccc5)N5CCOC5=O)[nH]4)cc3)cc2)[nH]1 [Compound 1008] | < 1
12 | COC(=O)N[C@H](C(=O)N1CCC[C@H]1c1ncc(-c2ccc(C#Cc3ccc(-c4cnc([C@@H]5CCCN5C(=O)[C@H](NC(=O)OC)c5ccccc5)[nH]4)cc3)cc2)[nH]1)C(C)C [Compound 1002] | < 1
13 | COC(=O)N[C@@H](C(=O)N1CCC[C@H]1c1ncc(-c2ccc(C#Cc3ccc(-c4cnc([C@@H]5CCCN5C(=O)[C@@H]5CCCO5)[nH]4)cc3)cc2)[nH]1)c1ccccc1 [Compound 186] | < 1
14 | CN1CCC[C@@H]1C(=O)N[C@@H](C(=O)N1CCC[C@H]1c1ncc(-c2ccc(C#Cc3ccc(-c4cnc([C@@H]5CCCN5C(=O)[C@H](NC(=O)C5CC5)c5ccccc5)[nH]4)cc3)cc2)[nH]1)c1ccccc1 [Compound 216] | < 1
15 | COC(=O)N[C@H](C(=O)N1CCC[C@H]1c1ncc(-c2ccc(C#Cc3ccc(-c4cnc([C@@H]5CCCN5C(=O)[C@@H](c5ccccc5)N5CCCCC5)[nH]4)cc3)cc2)[nH]1)C(C)C [Compound 986] | < 1
16 | COC(=O)N[C@@H](C(=O)N1CCC[C@H]1c1ncc(-c2ccc(C#Cc3ccc(-c4cnc([C@@H]5CCCN5C(=O)[C@H](NC(=O)C5CC5)c5ccccc5)[nH]4)cc3)cc2)[nH]1)c1ccccc1 [Compound 218] | < 1
17 | COC(=O)N[C@H](C(=O)N[C@H](c1ncc(-c2ccc(C#Cc3ccc(-c4cnc([C@@H]5CCCN5C(=O)[C@@H](NC(=O)OC)C(C)C)[nH]4)cc3)cc2)[nH]1)C(C)C)C(C)C [Compound 276] | 1 to 9.9
18 | CC1(O)CCN(C(=O)N[C@@H](C(=O)N2CCC[C@H]2c2nc(-c3ccc4cc(C#Cc5cnc([C@@H]6CCCN6C(=O)[C@H](NC(=O)N6CCC(C)(O)CC6)c6ccccc6)[nH]5)ccc4c3)c[nH]2)c2ccccc2)CC1 [Compound 805] | < 1
19 | O=C([C@@H](c1ccccc1)N1CCCC1)N1CCC[C@H]1c1ncc(-c2ccc(C#Cc3ccc(-c4cnc([C@@H]5CCCN5C(=O)[C@@H](c5ccccc5)N5CCCC5)[nH]4)cc3)cc2)[nH]1 [Compound 194] | < 1
20 | O=C(N[C@@H](C(=O)N1CCC[C@H]1c1ncc(-c2ccc(C#Cc3ccc(-c4cnc([C@@H]5CCCN5C(=O)[C@H](NC(=O)N5CCOCC5)c5ccccc5)[nH]4)cc3)cc2)[nH]1)c1ccccc1)N1CCOCC1 [Compound 248] | < 1
21 | COC(=O)N[C@H](C(=O)N1CCC[C@H]1c1ncc(-c2ccc(C#Cc3ccc(-c4cnc([C@@H]5CCCN5C(=O)[C@H](NC(=O)N5CCC(C)(O)CC5)c5ccccc5)[nH]4)cc3)cc2)[nH]1)C(C)C [Compound 992] | < 1
22 | COC(=O)N[C@H](C(=O)N1CCC[C@H]1c1ncc(-c2ccc3nc(C#Cc4ccc5nc([C@@H]6CCCN6C(=O)[C@@H](NC(=O)OC)C6CCOCC6)[nH]c5c4)ccc3c2)[nH]1)C1CCOCC1 [Compound 1108] | < 1
23 | COC(=O)N[C@@H](C(=O)N1CCC[C@H]1c1ncc(C#Cc2ccc(-c3cnc([C@@H]4CCCN4C(=O)[C@H](NC(=O)OC)c4ccccc4)[nH]3)cc2)[nH]1)c1ccccc1 [Compound 110] | < 1

Same assay, conditions: Hepatitis C virus, Huh-7, read-out: Inhibition of HCV genotype 1b

Row | Structure (SMILES) | EC50 [nM]
24 | COC(=O)N[C@@H](C(=O)N[C@@H](C)c1ncc(-c2ccc(C#Cc3ccc4nc([C@@H]5CCCN5C(=O)[C@H](NC(=O)OC)c5ccccc5)[nH]c4c3)cc2)[nH]1)c1ccccc1 [Compound 1226] | < 1
25 | COC(=O)N[C@H](C(=O)N[C@@H](C)c1ncc(-c2ccc(C#Cc3ccc4nc([C@@H]5CCCN5C(=O)[C@@H](NC(=O)OC)C5CCOCC5)[nH]c4c3)cc2)[nH]1)C1CCOCC1 [Compound 1227] | 1 to 9.9
26 | COC(=O)N[C@H](C(=O)N1CCC[C@H]1c1ncc(-c2ccc(C#Cc3ccc(-c4cnc([C@@H]5CCCN5C(=O)[C@H](NC(=O)OC)c5ccccc5OC)[nH]4)cc3)cc2)[nH]1)[C@@H](C)OC [Compound 1211] | < 1
27 | COC[C@H](NC(=O)OC)C(=O)N1CCC[C@H]1c1nc2ccc3cc(C#Cc4ccc5nc([C@@H]6CCCN6C(=O)[C@@H](NC(=O)OC)C(C)C)[nH]c5c4)ccc3c2[nH]1 [Compound 1288] | < 1
28 | CC[C@H](C)[C@H](NC(=O)OC)C(=O)N1CCC[C@H]1c1ncc(-c2ccc(C#Cc3ccc(-c4cnc([C@@H]5CCCN5C(=O)[C@@H](NC(=O)OC)[C@@H](C)CC)[nH]4)cc3)cc2)[nH]1 [Compound 1216] | < 1
29 | CC[C@H](C)[C@H](NC(=O)OC)C(=O)N1CCC[C@H]1c1ncc(-c2ccc(C#Cc3ccc(-c4cnc([C@@H]5CCCN5C(=O)[C@@H](NC(=O)OC)C5CCOCC5)[nH]4)cc3)cc2)[nH]1 [Compound 1220] | < 1
30 | COC(=O)N[C@H](C(=O)N1CCC[C@H]1c1nc2ccc(C#Cc3ccc(-c4cnc([C@@H]5CCCN5C(=O)[C@@H](NC(=O)OC)[C@@H](C)OC)[nH]4)cc3)cc2[nH]1)C(C)C [Compound 1235] | < 1
31 | COC(=O)N[C@H](C(=O)N1CCC[C@H]1c1ncc(-c2ccc(C#Cc3ccc4nc([C@@H]5CCCN5C(=O)[C@@H](NC(=O)OC)C(C)C)[nH]c4n3)cc2)[nH]1)C(C)C [Compound 1249] | < 1
